Reference: publication PMC5218480 (PLoS ONE, 2017)

Test system: MV-4-11 cells
Test: Gene expression microarray analysis (Affymetrix PrimeView) and GSEA
Format: cell-based, human
Set-up: RFU PODN (11730768_x_at) / Fold change /veh PODN (11730768_x_at) / RFU LINC00158 (11744669_a_at) / Fold change /veh LINC00158 (11744669_a_at) / RFU DUSP10 (11751237_a_at) / Fold change /veh DUSP10 (11751237_a_at) / RFU ID3 (11757404_x_at) / Fold change /veh ID3 (11757404_x_at) / RFU PLEKHG5 (11737974_s_at) / Fold change /veh PLEKHG5 (11737974_s_at) / RFU LRRC4B (11730491_at) / Fold change /veh LRRC4B (11730491_at) / RFU GIMAP4 (11747438_a_at) / Fold change /veh GIMAP4 (11747438_a_at) / RFU KRT8 (11758183_x_at) / Fold change /veh KRT8 (11758183_x_at) / RFU CNN1 (11734310_a_at) / Fold change /veh CNN1 (11734310_a_at) / RFU VPS37D (11726825_at) / Fold change /veh VPS37D (11726825_at) / RFU C10orf10 (11716522_x_at) / Fold change /veh C10orf10 (11716522_x_at) / RFU KIR2DL2 /// KIR2DL4 /// KIR2DL5A /// KIR2DL5B /// KIR2DS1 /// KIR2DS2 /// KIR2DS3 /// KIR2DS4 /// KIR3DL3 /// KIR3DL3 /// KIR3DS1 (11738374_at) / Fold change /veh KIR2DL2 /// KIR2DL4 /// KIR2DL5A /// KIR2DL5B /// KIR2DS1 /// KIR2DS2 /// KIR2DS3 /// KIR2DS4 /// KIR3DL3 /// KIR3DL3 /// KIR3DS1 (11738374_at) / RFU C1QL1 (11718748_at) / Fold change /veh C1QL1 (11718748_at) / RFU TMPRSS4 (11747572_a_at) / Fold change /veh TMPRSS4 (11747572_a_at) / RFU HAMP (11756126_x_at) / Fold change /veh HAMP (11756126_x_at) / RFU RNFT2 (11725882_a_at) / Fold change /veh RNFT2 (11725882_a_at) / RFU NR4A2 (11747474_a_at) / Fold change /veh NR4A2 (11747474_a_at) / RFU ABCC12 (11746883_a_at) / Fold change /veh ABCC12 (11746883_a_at) / RFU TMEM136 (11760407_x_at) / Fold change /veh TMEM136 (11760407_x_at) / RFU CLDN22 /// WWC2 (11732394_at) / Fold change /veh CLDN22 /// WWC2 (11732394_at) / RFU HLA-DPB1 (11760878_x_at) / Fold change /veh HLA-DPB1 (11760878_x_at) / RFU SPINT1 (11716480_a_at) / Fold change /veh SPINT1 (11716480_a_at) / RFU GAP43 (11754022_s_at) / Fold change /veh GAP43 (11754022_s_at) / RFU A4GNT (11735810_at) / Fold change /veh A4GNT (11735810_at) / RFU PRB3 (11715151_x_at) / Fold change /veh PRB3 (11715151_x_at) / RFU TUBB4B (11761932_at) / Fold change /veh TUBB4B (11761932_at) / RFU CAPN14 (11732068_a_at) / Fold change /veh CAPN14 (11732068_a_at) / RFU TMCC2 (11721928_a_at) / Fold change /veh TMCC2 (11721928_a_at) / RFU IRGQ (11745062_a_at) / Fold change /veh IRGQ (11745062_a_at) / RFU FAM174B (11720279_a_at) / Fold change /veh FAM174B (11720279_a_at) / RFU TMPRSS4 (11748680_a_at) / Fold change /veh TMPRSS4 (11748680_a_at) / RFU FAM212B (11763350_a_at) / Fold change /veh FAM212B (11763350_a_at) / RFU PLEKHG5 (11743358_a_at) / Fold change /veh PLEKHG5 (11743358_a_at) / RFU ZSCAN30 (11745921_a_at) / Fold change /veh ZSCAN30 (11745921_a_at) / RFU CMKLR1 (11741424_a_at) / Fold change /veh CMKLR1 (11741424_a_at) / RFU LOC101060620 /// MAPK8IP1 (11723275_at) / Fold change /veh LOC101060620 /// MAPK8IP1 (11723275_at) / RFU SPTSSB (11747773_x_at) / Fold change /veh SPTSSB (11747773_x_at) / RFU PRSS12 (11739890_at) / Fold change /veh PRSS12 (11739890_at) / RFU BIN1 (11741810_x_at) / Fold change /veh BIN1 (11741810_x_at) / RFU WNT11 (11732464_a_at) / Fold change /veh WNT11 (11732464_a_at) / RFU C10orf10 (11716521_a_at) / Fold change /veh C10orf10 (11716521_a_at) / RFU C5orf56 (11738089_at) / Fold change /veh C5orf56 (11738089_at) / RFU CYB561 (11721691_x_at) / Fold change /veh CYB561 (11721691_x_at) / RFU ANKRD19P (11752326_a_at) / Fold change /veh ANKRD19P (11752326_a_at) / RFU OR2T12 /// OR2T33 /// OR2T8 (11738714_s_at) / Fold change /veh OR2T12 /// OR2T33 /// OR2T8 (11738714_s_at) / RFU VCAN (11748164_a_at) / Fold change /veh VCAN (11748164_a_at) / RFU JSRP1 (11732532_at) / Fold change /veh JSRP1 (11732532_at) / RFU KRTAP10-11 (11738290_x_at) / Fold change /veh KRTAP10-11 (11738290_x_at) / RFU MYO3A (11730013_a_at) / Fold change /veh MYO3A (11730013_a_at) / RFU EBF3 (11725865_a_at) / Fold change /veh EBF3 (11725865_a_at) / RFU CAMK2N1 (11719241_x_at) / Fold change /veh CAMK2N1 (11719241_x_at) / RFU C5orf56 (11738088_a_at) / Fold change /veh C5orf56 (11738088_a_at) / RFU OLFML3 (11715873_a_at) / Fold change /veh OLFML3 (11715873_a_at) / RFU LOC100653217 /// NTM (11731650_a_at) / Fold change /veh LOC100653217 /// NTM (11731650_a_at) / RFU MAPK11 (11762145_a_at) / Fold change /veh MAPK11 (11762145_a_at) / RFU FIZ1 (11724087_x_at) / Fold change /veh FIZ1 (11724087_x_at) / RFU OASL (11726364_x_at) / Fold change /veh OASL (11726364_x_at) / RFU SOX15 (11748057_x_at) / Fold change /veh SOX15 (11748057_x_at) / RFU CD79A (11719716_a_at) / Fold change /veh CD79A (11719716_a_at) / RFU HIST1H1D (11736915_at) / Fold change /veh HIST1H1D (11736915_at) / RFU CASKIN2 (11723855_a_at) / Fold change /veh CASKIN2 (11723855_a_at) / RFU LOC730098 (11760151_x_at) / Fold change /veh LOC730098 (11760151_x_at) / RFU OR4N2 (11742367_at) / Fold change /veh OR4N2 (11742367_at) / RFU PRRT2 (11749266_a_at) / Fold change /veh PRRT2 (11749266_a_at) / RFU SNX32 (11753110_a_at) / Fold change /veh SNX32 (11753110_a_at) / RFU CDHR5 (11726645_a_at) / Fold change /veh CDHR5 (11726645_a_at) / RFU RCAN1 (11760418_a_at) / Fold change /veh RCAN1 (11760418_a_at) / RFU FAM167A (11723789_a_at) / Fold change /veh FAM167A (11723789_a_at) / RFU FAM26E (11764081_at) / Fold change /veh FAM26E (11764081_at) / RFU ISYNA1 (11749810_s_at) / Fold change /veh ISYNA1 (11749810_s_at) / RFU ACY1 (11761880_at) / Fold change /veh ACY1 (11761880_at) / RFU 11764098_at / Fold change /veh 11764098_at / RFU SAMD14 (11745864_x_at) / Fold change /veh SAMD14 (11745864_x_at) / RFU NPB (11741838_a_at) / Fold change /veh NPB (11741838_a_at) / RFU TMPRSS6 (11731388_a_at) / Fold change /veh TMPRSS6 (11731388_a_at) / RFU KRTAP10-2 (11738614_at) / Fold change /veh KRTAP10-2 (11738614_at) / RFU ARHGAP8 /// PRR5-ARHGAP8 (11727945_x_at) / Fold change /veh ARHGAP8 /// PRR5-ARHGAP8 (11727945_x_at) / RFU KRTAP5-7 /// NADSYN1 (11734609_at) / Fold change /veh KRTAP5-7 /// NADSYN1 (11734609_at) / RFU RASL12 (11751679_a_at) / Fold change /veh RASL12 (11751679_a_at) / RFU CDKN2B (11736163_a_at) / Fold change /veh CDKN2B (11736163_a_at) / RFU PRF1 (11729649_at) / Fold change /veh PRF1 (11729649_at) / RFU, ZNF638 /// ZNF638-IT1 / Fold change vs veh, ZNF638 /// ZNF638-IT1 / RFU, PANK3 / Fold change vs veh, PANK3 / RFU, SH3YL1 / Fold change vs veh, SH3YL1 / RFU, ZEB2 / Fold change vs veh, ZEB2 / RFU, NRIP1 / Fold change vs veh, NRIP1 / RFU, PTTG1IP / Fold change vs veh, PTTG1IP / RFU, CAPN2 / Fold change vs veh, CAPN2 / RFU, MED14 / Fold change vs veh, MED14 / RFU, SNORA58 / Fold change vs veh, SNORA58 / RFU, C1orf63 / Fold change vs veh, C1orf63 / RFU, LRRFIP1 / Fold change vs veh, LRRFIP1 / RFU, NDUFAF7 / Fold change vs veh, NDUFAF7 / RFU, SLC12A2 / Fold change vs veh, SLC12A2 / RFU, IBTK / Fold change vs veh, IBTK / RFU, ESF1 / Fold change vs veh, ESF1 / Fold change vs veh, TMEM50B / RFU, TAOK1 / Fold change vs veh, TAOK1 / RFU, ACBD3 / Fold change vs veh, ACBD3 / RFU, TMA16 / Fold change vs veh, TMA16 / RFU, RWDD3 / Fold change vs veh, RWDD3 / RFU, BCAT1 / Fold change vs veh, BCAT1 / RFU, EDEM3 / Fold change vs veh, EDEM3 / RFU, TMEM33 / Fold change vs veh, TMEM33 / RFU, WDR75 / Fold change vs veh, WDR75 / RFU, AHCTF1 / Fold change vs veh, AHCTF1 / RFU, TFRC / Fold change vs veh, TFRC / RFU, ZDHHC17 / Fold change vs veh, ZDHHC17 / RFU, NOM1 / Fold change vs veh, NOM1 / RFU, ARL8B / Fold change vs veh, ARL8B / RFU, ZBTB11 / Fold change vs veh, ZBTB11 / RFU, TAMM41 / Fold change vs veh, TAMM41 / RFU, KIAA1704 /// LOC100996395 / Fold change vs veh, KIAA1704 /// LOC100996395 / RFU, ING1 / Fold change vs veh, ING1 / RFU, TRMT61B / Fold change vs veh, TRMT61B / RFU, FUBP3 / Fold change vs veh, FUBP3 / RFU, TP53 / Fold change vs veh, TP53 / RFU, TNKS2 / Fold change vs veh, TNKS2 / RFU, ZFP14 / Fold change vs veh, ZFP14 / RFU, ACTR2 / Fold change vs veh, ACTR2 / RFU, PPP3R1 / Fold change vs veh, PPP3R1 / RFU, PIK3R1 / Fold change vs veh, PIK3R1 / RFU, HNRNPA1 / Fold change vs veh, HNRNPA1 / RFU, RNF170 / Fold change vs veh, RNF170 / RFU, ZNF28 / Fold change vs veh, ZNF28 / RFU, RNGTT / Fold change vs veh, RNGTT / RFU, OGT / Fold change vs veh, OGT / RFU, BRD1 / Fold change vs veh, BRD1 / RFU, MARS / Fold change vs veh, MARS / RFU, ZNF655 / Fold change vs veh, ZNF655 / RFU, FAHD1 / Fold change vs veh, FAHD1 / RFU, BDP1 / Fold change vs veh, BDP1 / RFU, LRRCC1 / Fold change vs veh, LRRCC1 / RFU, ARID1A / Fold change vs veh, ARID1A / RFU, ZNF146 / Fold change vs veh, ZNF146 / RFU, ZNF330 / Fold change vs veh, ZNF330 / RFU, GPN3 / Fold change vs veh, GPN3 / RFU, C9orf123 / Fold change vs veh, C9orf123 / RFU, N4BP2L2 / Fold change vs veh, N4BP2L2 / RFU, ARFIP1 / Fold change vs veh, ARFIP1 / RFU, FAM179B / Fold change vs veh, FAM179B / RFU, BCL10 / Fold change vs veh, BCL10 / RFU, UHRF1BP1L / Fold change vs veh, UHRF1BP1L / RFU, BET1 / Fold change vs veh, BET1 / RFU, CNOT2 / Fold change vs veh, CNOT2 / RFU, ZNF268 / Fold change vs veh, ZNF268 / Fold change vs veh, ZNF507 / RFU, DGCR2 / Fold change vs veh, DGCR2 / RFU, WDSUB1 / Fold change vs veh, WDSUB1 / Fold change vs veh, HSP90B1 /// MIR3652 / RFU, ADSS / Fold change vs veh, ADSS / RFU, GK / Fold change vs veh, GK / RFU, ZNF148 / Fold change vs veh, ZNF148 / RFU, TAF9 / Fold change vs veh, TAF9 / RFU, SLC1A5 / Fold change vs veh, SLC1A5 / RFU, SLMO2 / Fold change vs veh, SLMO2 / RFU, ABCC4 / Fold change vs veh, ABCC4 / RFU, LOC101060439 /// RAP1B / Fold change vs veh, LOC101060439 /// RAP1B / RFU, RFX7 / Fold change vs veh, RFX7 / RFU, GTPBP10 / Fold change vs veh, GTPBP10 / RFU, CNEP1R1 / Fold change vs veh, CNEP1R1 / RFU, BIVM-ERCC5 /// ERCC5 / Fold change vs veh, BIVM-ERCC5 /// ERCC5 / RFU, ILF3 / Fold change vs veh, ILF3 / RFU 11762660_at / Fold change /veh 11762660_at / RFU VCAN (11757783_s_at) / Fold change /veh VCAN (11757783_s_at) / RFU DDX43 (11728927_at) / Fold change /veh DDX43 (11728927_at) / RFU KRT8 (11758188_x_at) / Fold change /veh KRT8 (11758188_x_at) / RFU NKD1 (11759106_at) / Fold change /veh NKD1 (11759106_at) / RFU SRD5A1 (11742802_a_at) / Fold change /veh SRD5A1 (11742802_a_at) / RFU TPSAB1 /// TPSB2 (11721975_s_at) / Fold change /veh TPSAB1 /// TPSB2 (11721975_s_at) / RFU GSTM3 (11746129_a_at) / Fold change /veh GSTM3 (11746129_a_at) / RFU IL23R (11737362_x_at) / Fold change /veh IL23R (11737362_x_at) / RFU TMEM51 (11727254_a_at) / Fold change /veh TMEM51 (11727254_a_at) / RFU PIWIL2 (11732686_x_at) / Fold change /veh PIWIL2 (11732686_x_at) / RFU ORM1 (11744905_x_at) / Fold change /veh ORM1 (11744905_x_at) / RFU CCDC152 (11743942_at) / Fold change /veh CCDC152 (11743942_at) / RFU ECM1 (11717891_a_at) / Fold change /veh ECM1 (11717891_a_at) / RFU IL23R (11748794_a_at) / Fold change /veh IL23R (11748794_a_at) / RFU TNFAIP8L3 (11732012_x_at) / Fold change /veh TNFAIP8L3 (11732012_x_at) / RFU MBOAT4 (11741988_at) / Fold change /veh MBOAT4 (11741988_at) / RFU 11764193_at / Fold change /veh 11764193_at / RFU TMEM53 (11763286_at) / Fold change /veh TMEM53 (11763286_at) / RFU MAGEB2 (11727129_at) / Fold change /veh MAGEB2 (11727129_at) / RFU TMEM200A (11744735_a_at) / Fold change /veh TMEM200A (11744735_a_at) / RFU CCDC152 (11751479_a_at) / Fold change /veh CCDC152 (11751479_a_at) / RFU FAM211A (11726209_a_at) / Fold change /veh FAM211A (11726209_a_at) / RFU RGS16 (11746705_a_at) / Fold change /veh RGS16 (11746705_a_at) / RFU VCAN (11755009_s_at) / Fold change /veh VCAN (11755009_s_at) / RFU RHOB (11743442_s_at) / Fold change /veh RHOB (11743442_s_at) / RFU RGS16 (11720943_a_at) / Fold change /veh RGS16 (11720943_a_at) / RFU RGS16 (11720944_at) / Fold change /veh RGS16 (11720944_at) / RFU, VPS4B / Fold change vs veh, VPS4B / RFU, CREB1 / Fold change vs veh, CREB1 / RFU, DNAJC13 / Fold change vs veh, DNAJC13 / RFU, GNAQ / Fold change vs veh, GNAQ / RFU, CDK5R1 / Fold change vs veh, CDK5R1 / RFU, ZRANB3 / Fold change vs veh, ZRANB3 / RFU, CUL4A / Fold change vs veh, CUL4A / RFU, CCNY / Fold change vs veh, CCNY / RFU, UFL1 / Fold change vs veh, UFL1 / RFU, COG3 / Fold change vs veh, COG3 / RFU, DIAPH2 / Fold change vs veh, DIAPH2 / RFU, SKA2 / Fold change vs veh, SKA2 / RFU, AFF3 / Fold change vs veh, AFF3 / RFU, LMF1 / Fold change vs veh, LMF1 / RFU, IPO11 / Fold change vs veh, IPO11 / RFU, DFFB / Fold change vs veh, DFFB / RFU, FOXP1 / Fold change vs veh, FOXP1 / RFU, CARD8 / Fold change vs veh, CARD8 / RFU, STRN3 / Fold change vs veh, STRN3 / RFU, ADK / Fold change vs veh, ADK / RFU, RASSF2 / Fold change vs veh, RASSF2 / RFU, WIPF1 / Fold change vs veh, WIPF1 / RFU, LARP1B / Fold change vs veh, LARP1B / RFU, RASA1 / Fold change vs veh, RASA1 / RFU, RB1 / Fold change vs veh, RB1 / RFU, PPFIA1 / Fold change vs veh, PPFIA1 / RFU, MAT2A / Fold change vs veh, MAT2A / RFU, CCT5 / Fold change vs veh, CCT5 / RFU, WDR92 / Fold change vs veh, WDR92 / RFU, CUX1 / Fold change vs veh, CUX1 / RFU, TTC7A / Fold change vs veh, TTC7A / RFU, TMEM135 / Fold change vs veh, TMEM135 / RFU, DEPTOR / Fold change vs veh, DEPTOR / RFU, CPM / Fold change vs veh, CPM / RFU, DNAJB6 / Fold change vs veh, DNAJB6 / RFU, CACNA2D3 / Fold change vs veh, CACNA2D3 / RFU, DTX4 / Fold change vs veh, DTX4 / RFU, TFCP2 / Fold change vs veh, TFCP2 / RFU, GMCL1 /// GMCL1P1 / Fold change vs veh, GMCL1 /// GMCL1P1 / RFU, AEBP2 / Fold change vs veh, AEBP2 / RFU, SNHG1 /// SNORD22 /// SNORD25 /// SNORD26 /// SNORD27 /// SNORD28 /// SNORD29 /// SNORD31 / Fold change vs veh, SNHG1 /// SNORD22 /// SNORD25 /// SNORD26 /// SNORD27 /// SNORD28 /// SNORD29 /// SNORD31 / Fold change (Aza/veh), C12orf56 (ProbeSet 11735607_a_at) / Fold change (ACY-1035/veh), C12orf56 (ProbeSet 11735607_a_at) / Fold change (Aza/veh), FGFR1OP (ProbeSet 11751329_s_at) / Fold change (ACY-1035/veh), FGFR1OP (ProbeSet 11751329_s_at) / Fold change (Aza/veh), VPS36 (ProbeSet 11739960_a_at) / Fold change (ACY-1035/veh), VPS36 (ProbeSet 11739960_a_at) / RFU SYPL1 (11715823_x_at) / Fold change /veh SYPL1 (11715823_x_at) / RFU IGFBP7 (11715501_s_at) / Fold change /veh IGFBP7 (11715501_s_at) / RFU REEP3 (11722064_at) / Fold change /veh REEP3 (11722064_at) / RFU IGLL1 (11728026_x_at) / Fold change /veh IGLL1 (11728026_x_at): dose or concentration left out as unconfirmed
Conditions: ProbeSet 11760938_a_at; LIST D

Nc1ncn([C@@H]2O[C@H](CO)[C@@H](O)[C@H]2O)c(=O)n1 [azacitidine]
Fold change vs veh, MAT2A: 0.66
